Test results taken from ChEMBL document CHEMBL4340566, “Development of indazole mineralocorticoid receptor antagonists and investigation into their selective late-stage functionalization” (Bioorg Med Chem Lett, 2019).

Experiments:
[1] = target: T1, Mineralocorticoid receptor (Homo sapiens, UniProt P08235); assay: Antagonist activity at mineralocorticoid receptor (unknown origin)
T1 sequence (P08235 whole entry): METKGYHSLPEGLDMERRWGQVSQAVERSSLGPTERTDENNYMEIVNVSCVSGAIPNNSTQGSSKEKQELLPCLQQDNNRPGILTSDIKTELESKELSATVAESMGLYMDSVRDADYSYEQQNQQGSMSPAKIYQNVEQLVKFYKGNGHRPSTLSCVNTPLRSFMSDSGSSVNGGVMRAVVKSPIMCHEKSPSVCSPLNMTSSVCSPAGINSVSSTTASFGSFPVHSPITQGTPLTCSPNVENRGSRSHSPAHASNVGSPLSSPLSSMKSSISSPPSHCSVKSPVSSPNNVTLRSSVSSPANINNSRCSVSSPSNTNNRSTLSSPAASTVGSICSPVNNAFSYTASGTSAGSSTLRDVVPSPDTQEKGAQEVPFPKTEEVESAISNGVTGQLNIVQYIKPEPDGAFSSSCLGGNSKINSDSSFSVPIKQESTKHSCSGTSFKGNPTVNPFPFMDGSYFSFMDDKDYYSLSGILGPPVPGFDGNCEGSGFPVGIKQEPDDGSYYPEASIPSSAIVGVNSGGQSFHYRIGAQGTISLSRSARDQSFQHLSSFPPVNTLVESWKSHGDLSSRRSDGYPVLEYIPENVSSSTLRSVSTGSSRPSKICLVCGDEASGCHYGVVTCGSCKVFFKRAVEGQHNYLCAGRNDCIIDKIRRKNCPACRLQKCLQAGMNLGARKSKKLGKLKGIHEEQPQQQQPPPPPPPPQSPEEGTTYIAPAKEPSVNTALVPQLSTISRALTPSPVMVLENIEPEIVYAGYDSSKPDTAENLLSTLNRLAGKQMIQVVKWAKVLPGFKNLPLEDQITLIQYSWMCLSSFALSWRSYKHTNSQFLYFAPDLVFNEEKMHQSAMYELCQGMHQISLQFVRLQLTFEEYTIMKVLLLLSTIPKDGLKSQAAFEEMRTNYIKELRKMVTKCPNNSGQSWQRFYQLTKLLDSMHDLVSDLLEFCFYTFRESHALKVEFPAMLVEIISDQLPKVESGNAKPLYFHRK

[2] = Clearance in Wistar Han rat at 1 mg/kg, iv or 2 mg/kg, po; format: ADME, organism-based; settings: in vivo
[3] = Half-life in Wistar Han rat at 1 mg/kg, iv or 2 mg/kg, po; format: ADME, organism-based; settings: in vivo; for half-life: Wistar Han
[4] = Photostability of the compound under UV-irradiation; format: physicochemical
[5] = Drug metabolism in rat liver microsomes assessed as oxidation of electron-rich indole core at 10 uM preincubated for 1 hr followed by NADPH addition by HRMS/MS fragmentation analysis; format: ADME, Microsome
[6] = Drug metabolism in human liver microsomes assessed as oxidation of electron-rich indole core at 10 uM preincubated for 1 hr followed by NADPH addition by HRMS/MS fragmentation analysis; format: ADME, Microsome
[7] = organism: Homo sapiens; assay: Selectivity ratio of IC50 for glucocorticoid receptor (unknown origin) to IC50 for mineralocorticoid receptor (unknown origin)
[8] = Half-life in Sprague-Dawley rat at 2 mg/kg, iv or 10 mg/kg, po; format: ADME, organism-based; settings: in vivo
[9] = Clearance in Sprague-Dawley rat at 2 mg/kg, iv or 10 mg/kg, po; format: ADME, organism-based; settings: in vivo
[10] = target: T2, Glucocorticoid receptor (Homo sapiens, UniProt P04150); assay: Binding affinity to glucocorticoid receptor (unknown origin) by gel filtration assay
T2 sequence (P04150 whole entry): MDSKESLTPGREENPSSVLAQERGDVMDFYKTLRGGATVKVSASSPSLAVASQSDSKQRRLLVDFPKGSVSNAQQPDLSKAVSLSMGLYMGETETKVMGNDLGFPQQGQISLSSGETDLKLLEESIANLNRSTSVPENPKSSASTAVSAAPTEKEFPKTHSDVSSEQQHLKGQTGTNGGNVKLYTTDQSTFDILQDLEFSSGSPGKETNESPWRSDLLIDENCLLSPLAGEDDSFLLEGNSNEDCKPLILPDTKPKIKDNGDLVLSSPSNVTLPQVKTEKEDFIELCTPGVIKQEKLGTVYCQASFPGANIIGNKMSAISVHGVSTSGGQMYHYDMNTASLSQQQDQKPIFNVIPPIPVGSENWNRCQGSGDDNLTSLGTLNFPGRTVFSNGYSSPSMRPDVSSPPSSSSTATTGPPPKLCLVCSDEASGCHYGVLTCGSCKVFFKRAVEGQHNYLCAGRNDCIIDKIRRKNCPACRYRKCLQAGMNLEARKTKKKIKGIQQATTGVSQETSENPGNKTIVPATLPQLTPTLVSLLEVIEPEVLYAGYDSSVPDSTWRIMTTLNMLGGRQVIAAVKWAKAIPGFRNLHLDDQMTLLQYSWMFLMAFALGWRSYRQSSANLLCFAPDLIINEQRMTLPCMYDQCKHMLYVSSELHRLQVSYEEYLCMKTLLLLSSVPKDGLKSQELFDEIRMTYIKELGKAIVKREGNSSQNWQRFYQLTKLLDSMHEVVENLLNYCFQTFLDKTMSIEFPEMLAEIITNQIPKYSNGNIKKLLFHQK

[11] = Oral bioavailability in Sprague-Dawley rat at 10 mg/kg; format: ADME, organism-based; settings: in vivo
[12] = Half-life in Sprague-Dawley rat at 1 mg/kg, iv or 2 mg/kg, po; format: ADME, organism-based; settings: in vivo
[13] = Oral bioavailability in Wistar Han rat at 2 mg/kg; format: ADME, organism-based; settings: in vivo
[14] = Metabolic stability in human liver microsomes assessed as parent compound remaining measured at 0.5 hrs; format: ADME, Microsome; settings: read-out: Stability
[15] = Oral bioavailability in Sprague-Dawley rat at 2 mg/kg; format: ADME, organism-based; settings: in vivo
[16] = Clearance in Sprague-Dawley rat at 1 mg/kg, iv or 2 mg/kg, po; format: ADME, organism-based; settings: in vivo
[17] = Half-life in Wistar Han rat at 2 mg/kg, iv or 10 mg/kg, po; format: ADME, organism-based; settings: in vivo
[18] = Clearance in Wistar Han rat at 2 mg/kg, iv or 10 mg/kg, po; format: ADME, organism-based; settings: in vivo
[19] = target: T1, Mineralocorticoid receptor; assay: Binding affinity to mineralocorticoid receptor (unknown origin)
[20] = Oral bioavailability in Wistar Han rat at 10 mg/kg; format: ADME, organism-based; settings: in vivo

CCC(CC)(c1ccc(Cl)cc1)c1nnc2c(NS(C)(=O)=O)cccn12
IC50 [1]: 5940 nM

CC[C@](CO)(c1ccc(Cl)cc1)n1ccc2c(NS(C)(=O)=O)cccc21
clearance [2]: 41 mL/min/kg | half-life [3]: 90 min

CC[C@](C(=O)NC)(c1ccc(Cl)cc1)n1ccc2c(NS(C)(=O)=O)cccc21
Stability [4]: Unstable | Drug metabolism [5]: Metabolite_Detected | Drug metabolism [6]: Metabolite_Detected

CC[C@@](c1ccc(C(F)(F)F)cc1)(C(C)O)n1ncc2c(NS(C)(=O)=O)cc(F)cc21 (single isomer, unassigned; diastereomer A) [listing 1 of 2 here]
Ratio IC50 [7]: 640

CCC(CC)(c1ccc(Cl)cc1)n1ncc2c(NS(C)(=O)=O)cccc21
IC50 [1]: 114 nM

CCC(CC)(c1ccc(Cl)cc1)c1cnc2c(NS(C)(=O)=O)cccn12
IC50 [1]: 7690 nM

CC[C@@](c1ccc(C(F)(F)F)cc1)(C(C)O)n1ncc2c(NS(C)(=O)=O)cc(F)cc21 (single isomer, unassigned; diastereomer B) [listing 1 of 2 here]
Ratio IC50 [7]: 19

CC[C@](CO)(c1ccc(Cl)cc1)n1ncc2c(NS(C)(=O)=O)cccc21
half-life [8]: 114 min | clearance [9]: 27 mL/min/kg | IC50 [10]: 870 nM | bioavailability [11]: 59% | IC50 [1]: 64 nM | Ratio IC50 [7]: 29

CC[C@@](c1ccc(C(F)(F)F)cc1)(C(C)O)n1ncc2c(NS(C)(=O)=O)cccc21 (some centres not stated)
clearance [2]: 14 mL/min/kg | half-life [12]: 342 min | bioavailability ([13]; Wistar Han): 92% | remaining at 0.5 h [14]: 52% | half-life [3]: 342 min | IC50 [10]: 1640 nM | bioavailability [15]: 92% | IC50 [1]: 20 nM | Ratio IC50 [7]: 1000 | clearance [16]: 14 mL/min/kg

CC[C@@](c1ccc(C(F)(F)F)cc1)(C(C)O)n1ncc2c(NS(C)(=O)=O)cc(F)cc21 (single isomer, unassigned; diastereomer A) [listing 2 of 2 here]
F [13]: 36% | t1/2 [3]: 1.8 h | IC50 [10]: 10200 nM | IC50 [1]: 22 nM

CC[C@](CO)(c1ccc(Cl)cc1)n1ccc2c(NS(C)(=O)=O)cc(F)cc21
half-life [17]: 96 min | clearance [18]: 34 mL/min/kg | IC50 [10]: 111 nM | IC50 [1]: 116 nM | Ratio IC50 [7]: 3.5 | IC50 [19]: 32 nM | bioavailability [20]: 30%

CCC(CC)(c1ccc(Cl)cc1)n1ccc2c(NS(C)(=O)=O)cccc21
IC50 [1]: 39 nM

CCC(CO)(c1ccc(Cl)cc1)n1ccc2c(NS(C)(=O)=O)cc(Br)cc21 (racemic)
IC50 [10]: 202 nM | IC50 [1]: 567 nM

CCC(CO)(c1ccc(Cl)cc1)n1ccc2c(NS(C)(=O)=O)cc(C#N)cc21 (racemic)
IC50 [10]: 1050 nM | IC50 [1]: 22000 nM

CC[C@@](c1ccc(C(F)(F)F)cc1)(C(C)O)n1ncc2c(NS(C)(=O)=O)cc(F)cc21 (single isomer, unassigned; diastereomer B) [listing 2 of 2 here]
F [13]: 92% | remaining at 0.5 h [14]: 84% | t1/2 [3]: 5.2 h | IC50 [10]: 4020 nM | IC50 [1]: 41 nM
